Data on two compounds can be found in patent publication US20250115571A1, “OXOPIPERAZINE DERIVATIVES” (Inthera Bioscience AG, priority 2017, published 2025).

For experiment [1], the system named is prostate-specific antigen (PSA). Nature of the experiment: Serum PSA (ELISA) in the castration-resistant prostate cancer patient-derived xenograft mouse model. It is filed as in vivo. The note with it: five mice with detectable tumors; daily 10 and 3 mg/kg (two mice) or 6 mg/kg (three mice); blood 3 h after the last dose. The procedure:
Mice from groups 1, 3 and 4 of the CPRC prostate patient-derived xenograft model (TABLE 9, EXAMPLE 322) were used to analyze serum PSA at the end of the experiment. […] PSA was detected by ELISA (Human Kallikrein 3/PSA Quantikine ELISA Kit, R&D Systems, Minneapolis, MN, USA) according to manufacturer's instructions. Minimal relative expected PSA-levels were calculated based on minimal PSA/tumor size ratio of vehicle-treated mice.

Experiment [2] deals with p53 protein and p53 lysine 382 acetylation in CaSki cells. Briefly: P53 protein reactivation in HPV16-positive cervical cancer cells (Western blot). It is filed as cell-based, human. The note with it: 72 h. As for the experimental part: HPV16-positive cervical cancer cells CaSki were subcultured as described in EXAMPLE 1, seeded at a density of 20′000 cells/cm^2; and readily treated with Compound 258 for 72 hrs. For western blot analysis, cells were removed from the cell culture vessels by trypsinization, washed twice with PBS (Sigma-Aldrich), lysed with a RIPA-buffer/Protease inhibitor cocktail (Sigma-Aldrich) by shaking on ice for 30 minutes followed by sonication on ice, 20 minutes centrifugation at 16′000×g, 4° C. Lysates were mixed 1:1 with 4× Lammli Buffer (Bio-Rad) prior to loading onto a Mini-PROTEAN TGX precast 4-20% PAGE gel (Bio-Rad). Gels were run for 1 hour at 110V. Gel were transferred to a Trans-Blot Turbo Mini PVDF membrane (Bio-Rad) using a Bio-Rad Trans-Blot Turbo System according to manufacturer's instructions. Equal amounts of cells were used, and the total transferred protein visualized on a Bio-Rad ChemiDoc Touch Imager prior to incubation with the primary antibody. […] Specific antibody binding was detected with the SuperSignal West Femto Maximum Sensitivity Substrate (ThermoFisher) and visualized using a Bio-Rad ChemiDoc Touch Imager.

Experiment [3] concerns Vascular Endothelial Growth Factor A (VEGF). Briefly: Tumor VEGF protein (ELISA) in HCT-116 colorectal cancer cell-derived xenograft. The note with it: HCT-116 xenograft, approximately 4 weeks of treatment with 3 mg/kg or 6 mg/kg. It is filed as in vivo, mouse. The procedure:
Mice from groups 1, 2, 4 and 5 of the HCT-116 colorectal cancer model (TABLE 12, EXAMPLE 324) and MKN45 gastric cancer model (TABLE 14, EXAMPLE 325) were used to analyze tumor Vascular Endothelial Growth Factor A (VEGF) protein expression at the end of the experiment. Tumors homogenates were prepared using a 2× Lysis Buffer (RayBiotech Life, Norcross, GA, USA) according to manufacturer's instructions. VEGF was quantified in 50 micrograms tumor by ELISA (Human VEGF Quantikine ELISA Kit, R&D Systems) according to manufacturer's instructions.
(In general: An ELISA detects its analyte on a solid surface through an enzyme-linked reagent.)

Experiment [4] deals with patient-derived castration-resistant prostate tumor cells (model #PR6511). Briefly: Castration resistant prostate cancer patient-derived xenograft (CRPC PDX). Type of experiment: in vivo, mouse. The note with it: for CR (complete regression) = number of mice / PR (partial regression) = number of mice / TFS (Tumor Free Survival) = number of complete regressions recorded up to Group Day End: groups of eight mice. As for the experimental part:
NSG NOD.Cg-PrkdcscidIj2rgtm1Wjl/SzJ mice (6-8 weeks of age) were injected with patient-derived castration-resistant prostate tumor cells (model #PR6511, Crown Bioscience UK Ltd Hillcrest, Osgathorpe Leicestershire, UK). The cells were inoculated subcutaneously into the left flank of 40 male NSG mice. When tumors reached a mean volume of approximately 100 mm^3 (i.e. 100 mm^3+/−54 mm^3, FIG. 3), mice were randomly assigned to five treatment groups of each eight mice (TABLE 9). Body weights were measured three times weekly prior to the initiation of dosing and daily thereafter. Tumor burden was assessed by caliper measurement three times weekly. Dosing breaks were applied when tolerability issues arose (body weight loss>10). Upon completion of the scheduled dosing phase at day 57, tumor outgrowth was monitored for groups 3, 4 and […] up to study day 77. Groups 1 and 2 were terminated on study day 57. Results of the experiment are shown in TABLES 10 and 11; and FIGS. 3 and 4. The experiment was performed in the Crown Bioscience Ltd. testing facility (Crown Bioscience UK Ltd Hillcrest, Dodgeford Lane, Osgathorpe Leicestershire LE12 9TE, UK).
(Xenograft models place foreign cells or tissue in a host animal.)

Experiment [5] concerns SiHa human HPV16-positive cervical cancer cells. Nature of the experiment: Cell-derived xenograft mouse model for cervical cancer (SiHa CDX). Type of experiment: in vivo. The note with it: for Tumor Size day 37: SiHa CDX, female BALB/c nude mice, Mean ± SEM; for T/C: day 37, tumor-to-control ratio (volume/volume). As for the experimental part: Female BALB/c nude mice (7-9 weeks of age) were injected with SiHa human HPV16-positive (Human Papillomavirus type 16) cervical cancer cells. The cells were inoculated subcutaneously into the left flank of 48 mice. When tumors reached a mean volume of approximately 111 mm^3, mice were randomly assigned to eight treatment groups of each six mice (TABLE 18). Body weights were measured three times weekly prior to the initiation of dosing and daily thereafter. Tumor burden was assessed by caliper measurement twice weekly. Dosing breaks were applied when tolerability issues arose (body weight loss>10%). The study was terminated four weeks post first dosing. The experiment was performed in the Crown Bioscience Ltd. (Beijing) testing facility (Ground Floor, Light Muller Building, Changping Sector of Zhongguancun Scientific Park, No. 21 Huoju Road, Changping District, Beijing, CHIN).

[6] abbreviates: 6 mg/kg p.o. QD, n.s. = not significant.
[7] abbreviates: p.o. QD, 10 mg/kg, 3 mg/kg from day 51 on.
Setting [8] is: 1 mg/kg, BID, p.o., listed as Compound 258.
Where [9] appears, read: 3 mg/kg, BID/QD (p.o. BID, QD from treatment day 7 on).

Take `CC(C)C[C@@H]1NCCN([C@@H](CC(C)C)C(=O)N2CCC3(C[C@@H]2C)OCC(CN2CCCC2)CO3)C1=O` (stereo partly drawn) [Compound 258, (3S)-1-[(2S)-4-methyl-1-oxo-1-[(3s,6s,8S)-8-methyl-3-(pyrrolidin-1-ylmethyl)-1,5-dioxa-9-azaspiro[5.5]undec-an-9-yl]pentan-2-yl]-3-(2-methylpropyl)piper-azin-2-one (^≠), isomer Z]: the “serum prostate-specific antigen (PSA) levels versus minimal relative expected PSA-levels” value in experiment [1] is “clear reduction”. Also, in experiment [2], the “concentration at which acetylation of p53 lysine 382 is detectable” value is reported as 20 nM and the “concentration at which induction of p53 protein above baseline is evident” value is listed as 7 nM. Further, in experiment [3], the “tumor VEGF protein levels” value is listed as “significantly reduced”. Also, in experiment [4] (setting [6]), the “TWO-WAY ANOVA p (tumor size at the end of the study) vs. Compound 258 10 mg/kg” value is recorded as “n.s”. In experiment [4] (6 mg/kg, p.o. QD), the “TWO-WAY ANOVA p (tumor size at the end of the study) vs. Enzalutamide” value was “p < 0.0001” and the “TWO-WAY ANOVA p (tumor size at the end of the study) vs. Vehicle” value was “p < 0.0001”. Further, in experiment [4] (10 mg/kg p.o. QD), the “TWO-WAY ANOVA p (tumor size at the end of the study) vs. Enzalutamide” value is given as “p < 0.0001” and the “TWO-WAY ANOVA p (tumor size at the end of the study) vs. Vehicle” value is recorded as “p < 0.0001”. In experiment [4] (p.o. QD, 6 mg/kg), the “CR (complete regression) = number of mice” value (“CR” for short) was found to be 3, the “PR (partial regression) = number of mice” value is 2 and the “TFS (Tumor Free Survival) = number of complete regressions recorded up to Group Day End” value (“TFS (Tumor Free Survival) = number” for short) was 3. In experiment [4] (setting [7]), the “CR” value was 4, the “PR (partial regression) = number of mice” value is recorded as 2 and the “TFS (Tumor Free Survival) = number” value is 3. Further, in experiment [5] (setting [8]), the “Tumor Size day 37” value came out at 296 ± 27 mm^3 and the T/C (usually the result in the treated group divided by that in the control group, in per cent) was determined as 31.6%. Besides, in experiment [5] (setting [9]), the “Tumor Size day 37” value turned out to be 104 ± 30 mm^3 and the T/C is recorded as 11.1%.

On to `CC(C)C[C@@H]1NCCN([C@@H](CC(C)C)C(=O)N2CCC3(C[C@@H]2C)OCC(CN2CCC2)CO3)C1=O` (stereo partly drawn) [Compound 284, (3S)-1-[(2S)-4-methyl-1-oxo-1-[(3s,6s,8S)-3-(azetidin-1-ylmethyl)-8-methyl-1,5-dioxa-9-azaspiro[5.5]undec-an-9-yl]pentan-2-yl]-3-(2-methylpropyl)piper-azin-2-one (^≠), isomer Z], for which, in experiment [4] (setting [6]), the “TWO-WAY ANOVA p (tumor size at the end of the study) vs. Compound 258 6 mg/kg” value is on record as “n.s” and the “TWO-WAY ANOVA p (tumor size at the end of the study) vs. Compound 258 10 mg/kg” value is “n.s”. Moreover, in experiment [4] (6 mg/kg, p.o. QD), the “TWO-WAY ANOVA p (tumor size at the end of the study) vs. Enzalutamide” value is “p < 0.0001” and the “TWO-WAY ANOVA p (tumor size at the end of the study) vs. Vehicle” value is “p < 0.0001”. Besides, in experiment [4] (p.o. QD, 6 mg/kg), the “CR” value is reported as 3, the “PR (partial regression) = number of mice” value is given as 2 and the “TFS (Tumor Free Survival) = number” value stood at 3.
